Data taken from paper PMC4735795, “Deciphering the Receptor Repertoire Encoding Specific Odorants by Time-Lapse Single-Cell Array Cytometry” (Scientific Reports, 2016).

Legend:
Test in all cases: GloSensor cAMP luminescence in HEK293T
Type in all cases: cell-based
Conditions in all cases: agonist; co-expressed Golf alpha and RTP1S; N = 12
Olfr1258 (mOR232-3) = target: T1, Olfr1258 (mOR232-3) (Mus musculus, UniProt Q8VGN6)
T1 construct: gene Or4c10; full-length from mouse genomic DNA in pCI-neo; N-terminal rhodopsin and myc tags; HEK293T with co-transfected Golf alpha, RTP1S and GloSensor-22F

Olfr168 (mOR271-1) = target: T2, Olfr168 (mOR271-1) (Mus musculus, UniProt A0PK36)
T2 construct: full-length from mouse genomic DNA in pCI-neo; N-terminal rhodopsin and myc tags; HEK293T with co-transfected Golf alpha, RTP1S and GloSensor-22F
T2 sequence (A0PK36 1-312): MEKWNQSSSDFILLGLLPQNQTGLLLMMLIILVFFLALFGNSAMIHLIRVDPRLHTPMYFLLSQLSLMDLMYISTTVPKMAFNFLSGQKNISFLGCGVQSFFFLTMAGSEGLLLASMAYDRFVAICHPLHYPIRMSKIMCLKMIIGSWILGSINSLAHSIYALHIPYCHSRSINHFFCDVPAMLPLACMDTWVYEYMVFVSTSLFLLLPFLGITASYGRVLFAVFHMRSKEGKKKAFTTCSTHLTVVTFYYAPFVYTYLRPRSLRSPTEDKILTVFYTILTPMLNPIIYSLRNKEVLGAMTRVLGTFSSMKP

Olfr166 (mOR270-1) = target: T3, Olfr166 (mOR270-1) (Mus musculus, UniProt Q0VEL6)
T3 construct: full-length from mouse genomic DNA in pCI-neo; N-terminal rhodopsin and myc tags; HEK293T with co-transfected Golf alpha, RTP1S and GloSensor-22F
T3 sequence (Q0VEL6 1-312): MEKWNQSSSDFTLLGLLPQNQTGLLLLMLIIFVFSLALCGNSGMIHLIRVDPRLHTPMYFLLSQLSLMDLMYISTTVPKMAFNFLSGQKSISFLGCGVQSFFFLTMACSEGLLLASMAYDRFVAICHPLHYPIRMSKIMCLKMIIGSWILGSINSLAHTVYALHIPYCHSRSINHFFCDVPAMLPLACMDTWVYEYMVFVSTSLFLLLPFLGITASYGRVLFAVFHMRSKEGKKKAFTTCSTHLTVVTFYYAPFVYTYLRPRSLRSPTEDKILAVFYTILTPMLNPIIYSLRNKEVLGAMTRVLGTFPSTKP

Olfr45 (mOR253-2) = target: T4, Olfr45 (mOR253-2) (Mus musculus, UniProt A0JLW4)
T4 construct: full-length from mouse genomic DNA in pCI-neo; N-terminal rhodopsin and myc tags; HEK293T with co-transfected Golf alpha, RTP1S and GloSensor-22F
T4 sequence (A0JLW4 1-311): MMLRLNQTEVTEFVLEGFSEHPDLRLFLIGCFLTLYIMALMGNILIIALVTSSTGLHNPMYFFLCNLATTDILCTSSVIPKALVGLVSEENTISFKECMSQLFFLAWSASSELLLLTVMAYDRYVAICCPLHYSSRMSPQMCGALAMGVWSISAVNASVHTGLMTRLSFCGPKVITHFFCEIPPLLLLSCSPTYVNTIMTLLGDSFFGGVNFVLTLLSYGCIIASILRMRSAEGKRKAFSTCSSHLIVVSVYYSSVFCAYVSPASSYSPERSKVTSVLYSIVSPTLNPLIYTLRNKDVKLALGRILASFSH

T1 sequence (Q8VGN6 1-311): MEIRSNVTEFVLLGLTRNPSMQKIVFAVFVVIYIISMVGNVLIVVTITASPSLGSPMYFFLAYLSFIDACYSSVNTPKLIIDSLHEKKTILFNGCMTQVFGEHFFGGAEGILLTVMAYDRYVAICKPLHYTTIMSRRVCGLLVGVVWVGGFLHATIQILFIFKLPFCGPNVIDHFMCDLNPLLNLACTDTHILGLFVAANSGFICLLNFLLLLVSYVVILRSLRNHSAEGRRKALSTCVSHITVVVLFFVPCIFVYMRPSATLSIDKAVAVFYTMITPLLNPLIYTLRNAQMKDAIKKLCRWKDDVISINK

Q: Which “GloSensor cAMP luminescence in HEK293T” value (Olfr1258 (mOR232-3)) does the source give for CCC(C)=O [2-butanone] here?
A: Olfr1258 was activated by 2-butanone

Q: CCCC(C)=O [2-pentanone] was tested. Which EC50 (Olfr168 (mOR271-1)) did it give?
A: 2.1 ± 0.6 mM

Q: With c1ccncc1 [pyridine] as the molecule, how does the “GloSensor cAMP luminescence in HEK293T” value (Olfr166 (mOR270-1)) read?
A: both Olfr45 and Olfr166 were activated by pyridine

Q: What about the “GloSensor cAMP luminescence in HEK293T” value (Olfr45 (mOR253-2)) of the same molecule?
A: both Olfr45 and Olfr166 were activated by pyridine
